Experimental data taken from patent US20210284621A1 (priority 2018, published 2021).
Read-outs that look alike come from different tables or passages of the source.

Experiments:
CB2 receptor [1] = biological target: T1, CB2 receptor (Homo sapiens, UniProt P34972); assay: cell-based; set-up: host or cells: cAMP Hunter cell lines
Description: (§1) The PathHunter® β-Arrestin assay monitors the activation of a GPCR in a homogenous, non-imaging assay format using a technology developed by DiscoverX called Enzyme Fragment Complementation (EFC) with β-galactosidase (3-Gal) as the functional reporter. […] EA is fused to β-Arrestin and PK is fused to the GPCR of interest.
(§2) PathHunter cell lines were expanded from freezer stocks according to standard procedures. Cells were seeded in a total volume of 20 μL into white walled, 384-well microplates and incubated at 37° C. for the appropriate time prior to testing. For agonist activity determination, cells were incubated with sample to induce response. Intermediate dilution of sample stocks was performed to generate 5× sample in assay buffer. 5 μL of 5× sample was added to cells and incubated at 37° C. or room temperature for 90 to 180 minutes. Vehicle concentration was 1%. Assay signal was generated through a single addition of 12.5 or 15 μL (50% v/v) of PathHunter Detection reagent cocktail, followed by a one hour incubation at room temperature. Microplates were read following signal generation with a PerkinElmer Envision™ instrument for chemiluminescent signal detection. Compound activity was analyzed using CBIS data analysis suite (ChemInnovation, CA). For agonist assays, percentage activity was calculated using the following formula: % Activity=100%×(mean RLU of test sample− mean RLU of vehicle control)/(mean MAX control ligand− mean RLU of vehicle control).

CB1 receptor [2] = biological target: T2, CB1 receptor (Homo sapiens, UniProt P21554); assay: CB1 competitive radioligand binding assay ([3H] SR141716A); set-up: expressed in transfected cells; host or cells: Chem-1 cells; details: for inhibition at 0.5 µM: 0.5 μM compound, 2.0 nM [3H] SR141716A, 90 min 37° C.
Description: (§3) J Med Chem. 41(26): 5177-5187 (1998); and Munro S., et al. Molecular characterization of a peripheral receptor for cannabinoids. Nature 365:61-65 (1993).
CB1 Radioligand Binding Assay: A compound of the invention (0.5 μM in 1% DMSO) was incubated with Chem-1 cells expressing human recombinant CB1 receptor in buffer (50 mM HEPES, pH 7.4, 5 mM MgCl2, 1 mM CaCl2, 0.2% BSA) for 90 minutes at 37° C. in the presence of 2.0 nM [H^3] SR141716A (CB1 radioligand). % Inhibition was determined as a function of radioligand binding to the CB1 receptor.

CB1 receptor [3] = biological target: T2, CB1 receptor; assay: cell-based; set-up: host or cells: PathHunter cell lines
Description: as §1, §2

CB2 receptor [4] = biological target: T1, CB2 receptor; assay: CB2 competitive radioligand binding assay ([3H] WIN-55,212-2); set-up: expressed in transfected cells; host or cells: CHO-K1 cells; details: for inhibition at 0.05 µM: 0.05 μM compound, 2.4 nM [3H] WIN-55,212-2, 90 min 37° C.; for Fold Selectivity (CB1/CB2): Table 3, ratio of Ki CB1/CB2
Description: as §3
CB2 Radioligand Binding Assay: A compound of the invention (0.05 μM in 1% DMSO) was incubated with CHO-K1 cells expressing human recombinant CB2 receptor in buffer (20 mM HEPES, pH 7.0, 0.5% BSA) for 90 minutes at 37° C. in the presence of 2.4 nM [H^3] WIN-55,212-2 (CB2 radioligand). % Inhibition was determined as a function of radioligand binding to the […].

[5] = PathHunter agonist mode, read-out: CB2 Activity (β-Arrestin)
[6] = PathHunter agonist mode, read-out: CB1 Activity (β-Arrestin)

T1 sequence (P34972 whole entry, the tested form may be a part): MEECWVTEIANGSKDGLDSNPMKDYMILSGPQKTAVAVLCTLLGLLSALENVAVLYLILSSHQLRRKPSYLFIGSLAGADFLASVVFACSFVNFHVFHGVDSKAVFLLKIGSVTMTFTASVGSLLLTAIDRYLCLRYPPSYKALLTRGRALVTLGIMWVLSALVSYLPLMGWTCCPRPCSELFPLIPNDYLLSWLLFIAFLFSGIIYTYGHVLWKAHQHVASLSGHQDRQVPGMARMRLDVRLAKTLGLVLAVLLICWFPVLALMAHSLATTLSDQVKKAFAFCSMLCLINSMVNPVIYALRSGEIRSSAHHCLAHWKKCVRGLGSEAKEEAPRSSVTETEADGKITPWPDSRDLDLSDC
T2 sequence (P21554 whole entry): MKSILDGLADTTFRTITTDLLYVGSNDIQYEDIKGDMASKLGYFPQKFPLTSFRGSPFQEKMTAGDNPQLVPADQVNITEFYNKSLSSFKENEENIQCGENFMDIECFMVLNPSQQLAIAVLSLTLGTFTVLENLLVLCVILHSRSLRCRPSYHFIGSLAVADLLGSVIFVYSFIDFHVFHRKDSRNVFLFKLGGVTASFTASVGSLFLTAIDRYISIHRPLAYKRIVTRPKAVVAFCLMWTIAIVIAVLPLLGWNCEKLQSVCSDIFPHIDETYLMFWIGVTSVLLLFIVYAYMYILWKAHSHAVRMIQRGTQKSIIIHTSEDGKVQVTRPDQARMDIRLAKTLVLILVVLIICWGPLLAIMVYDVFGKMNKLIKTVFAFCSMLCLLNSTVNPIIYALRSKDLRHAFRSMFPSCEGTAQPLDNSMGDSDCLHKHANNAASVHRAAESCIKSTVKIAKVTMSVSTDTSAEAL

Compound	EC50 (CB2 receptor [1]; [5])	inhibition at 0.5 µM (CB1 receptor [2])	Ki (CB1 receptor [2]; Table 2, read-out: CB1 Binding Ki)	EC50 (CB1 receptor [3]; [6])	inhibition at 0.05 µM (CB2 receptor [4])	Ki (CB2 receptor [4]; Table 2, read-out: CB2 Binding Ki)	EC50 (CB2 receptor [1])	EC50 (CB1 receptor [3])	Ki (CB1 receptor [2])	Ki (CB2 receptor [4])	Fold Selectivity (CB1/CB2) (CB2 receptor [4])
CCCCCCC(C)(C)c1cc(O)c2c(c1)OC(C)(C)[C@@H]1CC=C(C(=O)NCC(=O)O)C[C@@H]21 [Compound 1, ((6aR,10aR)-1-Hydroxy-6,6-dimethyl-3-(2-methyloctan-2-yl)-6a,7,10,10a-tetrahydro-6H-benzo[c]chromene-9-carbonyl)glycine]	58 nM	10%	> 3000 nM	> 3000 nM	4%	1310 nM					
CCCCCCC(C)(C)c1cc(O)c2c(c1)OC(C)(C)[C@@H]1CC=C(C(=O)N[C@H](C)C(=O)O)C[C@@H]21 [Compound 2, ((6aR,10aR)-1-Hydroxy-6,6-dimethyl-3-(2-methyloctan-2-yl)-6a,7,10,10a-tetrahydro-6H-benzo[c]chromene-9-carbonyl)-D-alanine]	> 3000 nM	9%		> 3000 nM	0%						
CCCCCCC(C)(C)c1cc(O)c2c(c1)OC(C)(C)[C@@H]1CC=C(C(=O)N[C@H](Cc3ccc(O)cc3)C(=O)O)C[C@@H]21 [Compound 3]		13%			8%		> 3000 nM	> 3000 nM			
CCCCCCC(C)(C)c1cc(O)c2c(c1)OC(C)(C)[C@H]1CC=C(C(=O)O)C[C@H]21 [Compound 20, (6aS,10aS)-1-Hydroxy-6,6-dimethyl-3-(2-methyloctan-2-yl)-6a,7,10,10a-tetrahydro-6H-benzo[c]chromene-9-carboxylic acid]		-10%			9%		> 3000 nM	> 3000 nM			
CCCCCCC(C)(C)c1cc(O)c2c(c1)OC(C)(C)[C@@H]1CC=C(C(=O)OCC(O)CO)C[C@@H]21 (stereo partly drawn) [Compound 22, 2,3-Dihydroxypropyl (6aR,10aR)-1-hydroxy-6,6-dimethyl-3-(2-methyloctan-2-yl)-6a,7,10,10a-tetrahydro-6H-benzo[c]chromene-9-carboxylate]	4 nM	107%			92%			42 nM			
CCCCCCC(C)(C)c1cc(O)c2c(c1)OC(C)(C)[C@@H]1CC=C(C(=O)NCCC(=O)O)C[C@@H]21 [Compound 26, 3-((6aR,10aR)-1-Hydroxy-6,6-dimethyl-3-(2-methyloctan-2-yl)-6a,7,10,10a-tetrahydro-6H-benzo[c]chromene-9-carboxamido)propanoic acid]	> 3000 nM	9%		> 3000 nM	2%						
CCCCCCC(C)(C)c1cc(O)c2c(c1)OC(C)(C)[C@@H]1CC=C(C(=O)NC(C)(C)CC(=O)O)C[C@@H]21 [Compound 27, 3-((6aR,10aR)-1-Hydroxy-6,6-dimethyl-3-(2-methyloctan-2-yl)-6a,7,10,10a-tetrahydro-6H-benzo[c]chromene-9-carboxamido)-3-methylbutanoic acid]	> 3000 nM	9%		> 3000 nM	7%						
CCCCCCC(C)(C)C1=CC2=C(C(=O)C1=O)[C@@H]1CC(C(=O)O)=CC[C@H]1C(C)(C)O2 [Compound 30, (6aR,10aR)-6,6-dimethyl-3-(2-methyloctan-2-yl)-1,2-dioxo-2,6,6a,7,10,10a-hexahydro-1H-benzo[c]chromene-9-carboxylic acid]	> 3000 nM	19%		> 3000 nM	-2%						
CCCCCCC(C)(C)c1cc(O)c2c(c1)OC(C)(C)[C@@H]1CC=C(C(=O)NOC(C)(C)C)C[C@@H]21 [Compound 88, (6aR,10aR)-N-(tert-butoxy)-1-hydroxy-6,6-dimethyl-3-(2-methyloctan-2-yl)-6a,7,10,10a-tetrahydro-6H-benzo[c]chromene-9-carboxamide]	1.7 nM							5.9 nM	5.4 nM	1 nM	5.7
CCCCCCC(C)(C)c1cc(O)c2c(c1)OC(C)(C)[C@@H]1CC=C(C(=O)NC3COC3)C[C@@H]21 [Compound 90, (6aR,10aR)-1-hydroxy-6,6-dimethyl-3-(2-methyloctan-2-yl)-N-(oxetan-3-yl)-6a,7,10,10a-tetrahydro-6H-benzo[c]chromene-9-carboxamide]	2.7 nM							128 nM	10 nM	2.5 nM	4.0
CCCCCCC(C)(C)c1cc(O)c2c(c1)OC(C)(C)[C@@H]1CC=C(C(=O)NC3(C(F)(F)F)CCC3)C[C@@H]21 [Compound 96, (6aR,10aR)-1-hydroxy-6,6-dimethyl-3-(2-methyloctan-2-yl)-N-(1-(trifluoromethyl)cyclobutyl)-6a,7,10,10a-tetrahydro-6H-benzo[c]chromene-9-carboxamide]	3 nM							12.8 nM	25 nM	1.3 nM	19.2
CCCC(C)(C)c1cc(O)c2c(c1)OC(C)(C)[C@@H]1CC=C(C(=O)NC3CCCC3)C[C@@H]21 [Compound 97, (6aR,10aR)-N-cyclopentyl-1-hydroxy-6,6-dimethyl-3-(2-methylpentan-2-yl)-6a,7,10,10a-tetrahydro-6H-benzo[c]chromene-9-carboxamide]							17.9 nM	> 3000 nM	780 nM	72 nM	10.8
CCCC(C)(C)c1cc(O)c2c(c1)OC(C)(C)[C@@H]1CC=C(C(=O)NC3(C(F)(F)F)CC3)C[C@@H]21 [Compound 102, (6aR,10aR)-1-hydroxy-6,6-dimethyl-3-(2-methylpentan-2-yl)-N-(1-(trifluoromethyl)cyclopropyl)-6a,7,10,10a-tetrahydro-6H-benzo[c]chromene-9-carboxamide]	30.5 nM			> 3000 nM					860 nM	51 nM	16.9
CCCCCCC(C)(C)c1cc(O)c2c(c1)OC(C)(C)[C@@H]1CC=C(C(=O)NC3CNC3)C[C@@H]21 [Compound 103, (6aR,10aR)-N-(azetidin-3-yl)-1-hydroxy-6,6-dimethyl-3-(2-methyloctan-2-yl)-6a,7,10,10a-tetrahydro-6H-benzo[c]chromene-9-carboxamide]	9.5 nM							1710 nM	270 nM	51 nM	5.3
CCCCCCC(C)(C)c1cc(O)c2c(c1)OC(C)(C)[C@@H]1CC=C(C(=O)N3CCNCC3)C[C@@H]21 [Compound 104, ((6aR,10aR)-1-hydroxy-6,6-dimethyl-3-(2-methyloctan-2-yl)-6a,7,10,10a-tetrahydro-6H-benzo[c]chromen-9-yl)(piperazin-1-yl)methanone]	5 nM							4450 nM	260 nM	30 nM	8.7
CCCCCCC(C)(C)c1cc(O)c2c(c1)OC(C)(C)[C@@H]1CC=C(C(=O)NOC)C[C@@H]21 [Compound 107]	2.9 nM			49.4 nM					36.2 nM	4.9 nM	7.4
CCCCCCC(C)(C)c1cc(O)c2c(c1)OC(C)(C)[C@@H]1CC=C(C(=O)NS(C)(=O)=O)C[C@@H]21 [Compound 108, (6aR,10aR)-1-hydroxy-6,6-dimethyl-3-(2-methyloctan-2-yl)-N-(methylsulfonyl)-6a,7,10,10a-tetrahydro-6H-benzo[c]chromene-9-carboxamide]							29.5 nM	1430 nM	> 3000 nM	302 nM	>9.9
